# Measurements from PMC11678425, “(-)-Syringaresinol Exerts an Antidepressant-like Activity in Mice by Noncompetitive Inhibition of the Serotonin Transporter” (Pharmaceuticals, 2024).
# Experiments:
# Format in all cases: cell-based
# hSERT D328A = biological target: T1, hSERT D328A (Homo sapiens, UniProt P31645, D328A); test: APP^+ uptake, hSERT D328A; conditions: S2 site mutant
# T1 construct: forward and reverse primers were used to amplify a full-length hSERT; expressed in transfected cells; host or cells: HeLa cells, transient, pcDNA3.1
# hSERT L565A = biological target: T2, hSERT L565A (Homo sapiens, UniProt P31645, L565A); test: APP^+ uptake, hSERT L565A; conditions: S2 site mutant
# T2 construct: forward and reverse primers were used to amplify a full-length hSERT; expressed in transfected cells; host or cells: HeLa
# hSERT F556A = biological target: T3, hSERT F556A (Homo sapiens, UniProt P31645, F556A); test: APP^+ uptake, hSERT F556A; conditions: S2 site mutant
# T3 construct: forward and reverse primers were used to amplify a full-length hSERT; expressed in transfected cells; host or cells: HeLa cells, transient, pcDNA3.1
# hSERT P561G = biological target: T4, hSERT P561G (Homo sapiens, UniProt P31645, P561G); test: APP^+ uptake, hSERT P561G; conditions: S2 site mutant
# T4 construct: forward and reverse primers were used to amplify a full-length hSERT; expressed in transfected cells; host or cells: HeLa
# hSERT T583A = biological target: T5, hSERT T583A (Homo sapiens, UniProt P31645, T583A); test: APP^+ uptake, hSERT T583A; conditions: S2 site mutant
# T5 construct: forward and reverse primers were used to amplify a full-length hSERT; expressed in transfected cells; host or cells: HeLa
# hSERT P560G = biological target: T6, hSERT P560G (Homo sapiens, UniProt P31645, P560G); test: APP^+ uptake, hSERT P560G; conditions: S2 site mutant
# T6 construct: forward and reverse primers were used to amplify a full-length hSERT; expressed in transfected cells; host or cells: HeLa cells, transient, pcDNA3.1
# hSERT E493N = biological target: T7, hSERT E493N (Homo sapiens, UniProt P31645, E493N); test: APP^+ uptake, hSERT E493N; conditions: S2 site mutant
# T7 construct: forward and reverse primers were used to amplify a full-length hSERT; expressed in transfected cells; host or cells: HeLa cells, transient, pcDNA3.1
# hSERT Y579A = biological target: T8, hSERT Y579A (Homo sapiens, UniProt P31645, Y579A); test: APP^+ uptake, hSERT Y579A; conditions: S2 site mutant
# T8 construct: forward and reverse primers were used to amplify a full-length hSERT; expressed in transfected cells; host or cells: HeLa
# hSERT L563A = biological target: T9, hSERT L563A (Homo sapiens, UniProt P31645, L563A); test: APP^+ uptake, hSERT L563A; conditions: S2 site mutant
# T9 construct: forward and reverse primers were used to amplify a full-length hSERT; expressed in transfected cells; host or cells: HeLa
# hSERT E494Q = biological target: T10, hSERT E494Q (Homo sapiens, UniProt P31645, E494Q); test: APP^+ uptake, hSERT E494Q; conditions: S2 site mutant
# T10 construct: forward and reverse primers were used to amplify a full-length hSERT; expressed in transfected cells; host or cells: HeLa cells, transient, pcDNA3.1
# hSERT Q562N = biological target: T11, hSERT Q562N (Homo sapiens, UniProt P31645, Q562N); test: APP^+ uptake, hSERT Q562N; conditions: S2 site mutant
# T11 construct: forward and reverse primers were used to amplify a full-length hSERT; expressed in transfected cells; host or cells: HeLa
# hSERT P499G = biological target: T12, hSERT P499G (Homo sapiens, UniProt P31645, P499G); test: APP^+ uptake, hSERT P499G; conditions: S2 site mutant
# T12 construct: forward and reverse primers were used to amplify a full-length hSERT; expressed in transfected cells; host or cells: HeLa cells, transient, pcDNA3.1
# hSERT R564A = biological target: T13, hSERT R564A (Homo sapiens, UniProt P31645, R564A); test: APP^+ uptake, hSERT R564A; conditions: S2 site mutant
# T13 construct: forward and reverse primers were used to amplify a full-length hSERT; expressed in transfected cells; host or cells: HeLa
# hSERT T497A = biological target: T14, hSERT T497A (Homo sapiens, UniProt P31645, T497A); test: APP^+ uptake, hSERT T497A; conditions: S2 site mutant
# T14 construct: forward and reverse primers were used to amplify a full-length hSERT; expressed in transfected cells; host or cells: HeLa cells, transient, pcDNA3.1
# hSERT G498T = biological target: T15, hSERT G498T (Homo sapiens, UniProt P31645, G498T); test: APP^+ uptake, hSERT G498T; conditions: S2 site mutant
# T15 construct: forward and reverse primers were used to amplify a full-length hSERT; expressed in transfected cells; host or cells: HeLa cells, transient, pcDNA3.1
# hSERT WT = biological target: T16, hSERT WT (Homo sapiens, UniProt P31645); test: APP^+ uptake, hSERT WT; conditions: WT
# T16 construct: forward and reverse primers were used to amplify a full-length hSERT; expressed in transfected cells; host or cells: HeLa cells (CCL-2), transient, pcDNA3.1
# hSERT I327A = biological target: T17, hSERT I327A (Homo sapiens, UniProt P31645, I327A); test: APP^+ uptake, hSERT I327A; conditions: S2 site mutant
# T17 construct: forward and reverse primers were used to amplify a full-length hSERT; expressed in transfected cells; host or cells: HeLa cells, transient, pcDNA3.1
# hSERT Q111N = biological target: T18, hSERT Q111N (Homo sapiens, UniProt P31645, Q111N); test: APP^+ uptake, hSERT Q111N; conditions: S2 site mutant
# T18 construct: forward and reverse primers were used to amplify a full-length hSERT; expressed in transfected cells; host or cells: HeLa cells, transient, pcDNA3.1
# hSERT S559A = biological target: T19, hSERT S559A (Homo sapiens, UniProt P31645, S559A); test: APP^+ uptake, hSERT S559A; conditions: S2 site mutant
# T19 construct: forward and reverse primers were used to amplify a full-length hSERT; expressed in transfected cells; host or cells: HeLa cells, transient, pcDNA3.1
compound,measurement,setting,value
"CN(C)c1ccc(-c2cc[n+](C)cc2)cc1 [APP^+, 4-(4-(dimethylamino)phenyl)-1-methylpyridinium]",Vmax,hSERT D328A; APP^+ transport,27.83 ± 0.85 AFU/min
same,Km,hSERT D328A,3.81 ± 0.27 µM
same,Vmax,hSERT L565A; APP^+ transport,21.13 ± 0.16 AFU/min
same,Km,hSERT L565A,0.68 ± 0.04 µM
same,Vmax,hSERT F556A; APP^+ transport,26.84 ± 1.74 AFU/min
same,Km,hSERT F556A,4.69 ± 1.02 µM
same,Vmax,hSERT P561G; APP^+ transport,26.55 ± 1.08 AFU/min
same,Km,hSERT P561G,2.73 ± 0.09 µM
same,Vmax,hSERT T583A; APP^+ transport,26.97 ± 0.26 AFU/min
same,Km,hSERT T583A,3.68 ± 0.15 µM
same,Vmax,hSERT P560G; APP^+ transport,21.70 ± 0.90 AFU/min
same,Km,hSERT P560G,1.85 ± 0.16 µM
same,Vmax,hSERT E493N; APP^+ transport,25.48 ± 0.96 AFU/min
same,Km,hSERT E493N,4.83 ± 0.19 µM
same,Vmax,hSERT Y579A; APP^+ transport,23.89 ± 2.33 AFU/min
same,Km,hSERT Y579A,2.81 ± 0.08 µM
same,Vmax,hSERT L563A; APP^+ transport,23.53 ± 0.45 AFU/min
same,Km,hSERT L563A,1.53 ± 0.07 µM
same,Vmax,hSERT E494Q; APP^+ transport,31.12 ± 0.89 AFU/min
same,Km,hSERT E494Q,6.83 ± 0.86 µM
same,Vmax,hSERT Q562N; APP^+ transport,23.57 ± 1.49 AFU/min
same,Km,hSERT Q562N,1.85 ± 0.36 µM
same,Vmax,hSERT P499G; APP^+ transport,27.28 ± 0.43 AFU/min
same,Km,hSERT P499G,3.72 ± 0.45 µM
same,Vmax,hSERT R564A; APP^+ transport,27.10 ± 0.08 AFU/min
same,Km,hSERT R564A,3.41 ± 0.12 µM
same,Vmax,hSERT T497A; APP^+ transport,26.63 ± 1.09 AFU/min
same,Km,hSERT T497A,3.85 ± 0.06 µM
same,Vmax,hSERT G498T; APP^+ transport,26.30 ± 1.52 AFU/min
same,Km,hSERT G498T,3.75 ± 0.32 µM
same,Vmax,hSERT WT; APP^+ transport,22.98 ± 0.92 AFU/min
same,Km,hSERT WT,2.24 ± 0.45 µM
same,Vmax,hSERT I327A; APP^+ transport,26.54 ± 1.43 AFU/min
same,Km,hSERT I327A,4.27 ± 0.79 µM
same,Vmax,hSERT Q111N; APP^+ transport,26.93 ± 1.35 AFU/min
same,Km,hSERT Q111N,3.69 ± 0.36 µM
same,Vmax,hSERT S559A; APP^+ transport,23.68 ± 0.57 AFU/min
same,Km,hSERT S559A,3.82 ± 0.55 µM
